Results as given in paper PMC6407913, “DREADD Agonist 21 Is an Effective Agonist for Muscarinic-Based DREADDs in Vitro and in Vivo” (ACS Pharmacology & Translational Science, 2018).
“And” between values parts separate entries of the source, which are not always exact repeats. Equal values may be shown once.

Legend:
Format in all cases: cell-based
[1] = target: T1, 318 nonolfactory human GPCRs (Homo sapiens, UniProt O00155); details: GPR25; C21 5 µM
T1 construct: expressed in transfected cells; host or cells: HTLA cells, transient

[2] = target: T2, 318 nonolfactory human GPCRs (Homo sapiens, UniProt O00222); details: GRM8; C21 5 µM
T2 construct: expressed in transfected cells; host or cells: HTLA cells, transient
T2 sequence (O00222 34-908): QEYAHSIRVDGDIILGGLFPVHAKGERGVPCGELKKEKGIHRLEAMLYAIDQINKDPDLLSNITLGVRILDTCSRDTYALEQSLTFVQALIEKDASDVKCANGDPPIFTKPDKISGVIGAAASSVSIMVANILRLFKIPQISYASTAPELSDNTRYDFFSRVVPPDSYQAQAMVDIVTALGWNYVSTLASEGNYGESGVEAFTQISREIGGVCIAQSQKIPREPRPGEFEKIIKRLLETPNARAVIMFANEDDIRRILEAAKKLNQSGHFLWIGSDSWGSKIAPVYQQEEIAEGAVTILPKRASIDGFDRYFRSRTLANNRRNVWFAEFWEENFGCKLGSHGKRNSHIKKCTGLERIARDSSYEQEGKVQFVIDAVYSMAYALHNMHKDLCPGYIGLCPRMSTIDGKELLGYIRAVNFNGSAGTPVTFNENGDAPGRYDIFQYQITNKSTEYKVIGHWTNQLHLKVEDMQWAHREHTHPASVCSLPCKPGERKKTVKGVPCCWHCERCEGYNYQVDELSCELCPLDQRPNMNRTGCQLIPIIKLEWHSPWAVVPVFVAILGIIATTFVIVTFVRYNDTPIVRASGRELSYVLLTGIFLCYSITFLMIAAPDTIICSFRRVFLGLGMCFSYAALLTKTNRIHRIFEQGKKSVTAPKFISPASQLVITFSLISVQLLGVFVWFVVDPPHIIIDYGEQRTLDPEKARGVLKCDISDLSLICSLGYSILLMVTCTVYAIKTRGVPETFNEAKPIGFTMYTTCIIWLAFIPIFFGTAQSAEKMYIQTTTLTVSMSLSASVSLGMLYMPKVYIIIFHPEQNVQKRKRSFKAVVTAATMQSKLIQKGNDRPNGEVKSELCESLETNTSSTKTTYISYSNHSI

[3] = target: T3, 318 nonolfactory human GPCRs (Homo sapiens, UniProt O14626); details: GPR171; C21 5 µM
T3 construct: expressed in transfected cells; host or cells: HTLA cells, transient

[4] = target: T4, 318 nonolfactory human GPCRs (Homo sapiens, UniProt O95838); details: GLP2R; C21 5 µM
T4 construct: expressed in transfected cells; host or cells: HTLA cells, transient

[5] = target: 318 nonolfactory human GPCRs (Homo sapiens, UniProt P07550); details: ADRB2; C21 5 µM
[6] = target: T5, 318 nonolfactory human GPCRs (Homo sapiens, UniProt P25101); details: EDNRA; C21 5 µM
T5 construct: expressed in transfected cells; host or cells: HTLA cells, transient

[7] = target: T6, 318 nonolfactory human GPCRs (Homo sapiens, UniProt P25106); details: CXCR7; C21 5 µM
T6 construct: expressed in transfected cells; host or cells: HTLA cells, transient
T6 sequence (P25106 whole entry): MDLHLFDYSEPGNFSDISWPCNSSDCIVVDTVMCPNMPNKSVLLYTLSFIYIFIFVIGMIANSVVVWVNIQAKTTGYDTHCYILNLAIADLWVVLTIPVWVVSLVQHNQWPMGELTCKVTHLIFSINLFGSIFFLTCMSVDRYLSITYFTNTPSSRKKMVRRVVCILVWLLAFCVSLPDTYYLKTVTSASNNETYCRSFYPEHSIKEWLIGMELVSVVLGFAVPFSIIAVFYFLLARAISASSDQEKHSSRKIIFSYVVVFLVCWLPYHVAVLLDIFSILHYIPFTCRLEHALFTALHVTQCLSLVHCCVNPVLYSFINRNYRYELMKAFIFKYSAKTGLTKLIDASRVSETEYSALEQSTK

[8] = target: 318 nonolfactory human GPCRs (Homo sapiens, UniProt P28221); details: HTR1D; C21 5 µM
Chain of 318 nonolfactory human GPCRs (Homo sapiens, UniProt P28221) (P28221 whole entry): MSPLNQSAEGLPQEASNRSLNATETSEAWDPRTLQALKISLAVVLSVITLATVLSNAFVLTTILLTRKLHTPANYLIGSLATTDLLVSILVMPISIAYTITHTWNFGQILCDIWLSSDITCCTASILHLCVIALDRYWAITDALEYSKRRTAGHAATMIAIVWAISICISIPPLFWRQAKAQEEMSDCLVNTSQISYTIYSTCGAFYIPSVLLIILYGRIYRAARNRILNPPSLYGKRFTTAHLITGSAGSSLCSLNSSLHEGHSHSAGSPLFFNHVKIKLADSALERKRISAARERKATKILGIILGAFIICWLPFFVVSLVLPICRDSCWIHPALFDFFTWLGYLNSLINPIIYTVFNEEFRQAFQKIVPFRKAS

[9] = target: T7, 318 nonolfactory human GPCRs (Homo sapiens, UniProt P28222); details: HTR1B; C21 5 µM
T7 construct: expressed in transfected cells; host or cells: HTLA cells, transient

[10] = target: T8, 318 nonolfactory human GPCRs (Homo sapiens, UniProt P28336); details: NMBR; C21 5 µM
T8 construct: expressed in transfected cells; host or cells: HTLA cells, transient

[11] = target: 318 nonolfactory human GPCRs (Homo sapiens, UniProt P31391); details: SSTR4; C21 5 µM
[12] = target: T9, 318 nonolfactory human GPCRs (Homo sapiens, UniProt P34998); details: CRHR1; C21 5 µM
T9 construct: expressed in transfected cells; host or cells: HTLA cells, transient

[13] = target: T10, 318 nonolfactory human GPCRs (Homo sapiens, UniProt P35368); details: ADRA1B; C21 5 µM
T10 construct: expressed in transfected cells; host or cells: HTLA cells, transient

[14] = target: T11, 318 nonolfactory human GPCRs (Homo sapiens, UniProt P35410); details: MAS1L; C21 5 µM
T11 construct: expressed in transfected cells; host or cells: HTLA cells, transient

[15] = target: T12, 318 nonolfactory human GPCRs (Homo sapiens, UniProt P41231); details: P2RY2; C21 5 µM
T12 construct: expressed in transfected cells; host or cells: HTLA cells, transient

[16] = target: 318 nonolfactory human GPCRs (Homo sapiens, UniProt P46093); details: GPR4; C21 5 µM
[17] = target: 318 nonolfactory human GPCRs (Homo sapiens, UniProt P48546); details: GIPR; C21 5 µM
[18] = target: T13, 318 nonolfactory human GPCRs (Homo sapiens, UniProt P50052); details: AGTR2; C21 5 µM
T13 construct: expressed in transfected cells; host or cells: HTLA cells, transient

[19] = target: T14, 318 nonolfactory human GPCRs (Homo sapiens, UniProt Q86SM8); details: MRGPRE; C21 5 µM
T14 construct: expressed in transfected cells; host or cells: HTLA cells, transient

[20] = target: T15, 318 nonolfactory human GPCRs (Homo sapiens, UniProt Q86Y34); details: GPR97; C21 5 µM
T15 construct: expressed in transfected cells; host or cells: HTLA cells, transient
T15 sequence (Q86Y34 21-549): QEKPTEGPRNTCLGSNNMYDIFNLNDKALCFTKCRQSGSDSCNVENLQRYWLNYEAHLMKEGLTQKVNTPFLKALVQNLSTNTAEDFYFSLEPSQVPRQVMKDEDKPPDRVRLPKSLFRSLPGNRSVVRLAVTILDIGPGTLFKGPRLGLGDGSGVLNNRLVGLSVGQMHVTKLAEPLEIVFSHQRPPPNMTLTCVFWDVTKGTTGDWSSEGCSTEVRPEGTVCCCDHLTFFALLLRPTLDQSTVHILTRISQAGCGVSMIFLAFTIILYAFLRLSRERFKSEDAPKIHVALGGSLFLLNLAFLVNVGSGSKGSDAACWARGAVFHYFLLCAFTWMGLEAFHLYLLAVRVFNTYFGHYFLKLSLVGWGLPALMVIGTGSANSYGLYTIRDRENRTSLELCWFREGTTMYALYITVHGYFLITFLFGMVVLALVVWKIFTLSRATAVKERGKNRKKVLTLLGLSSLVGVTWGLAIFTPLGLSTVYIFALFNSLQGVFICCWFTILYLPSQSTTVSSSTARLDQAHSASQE

[21] = target: T16, 318 nonolfactory human GPCRs (Homo sapiens, UniProt Q8NDV2); details: GPR26; C21 5 µM
T16 construct: expressed in transfected cells; host or cells: HTLA cells, transient
T16 sequence (Q8NDV2 whole entry): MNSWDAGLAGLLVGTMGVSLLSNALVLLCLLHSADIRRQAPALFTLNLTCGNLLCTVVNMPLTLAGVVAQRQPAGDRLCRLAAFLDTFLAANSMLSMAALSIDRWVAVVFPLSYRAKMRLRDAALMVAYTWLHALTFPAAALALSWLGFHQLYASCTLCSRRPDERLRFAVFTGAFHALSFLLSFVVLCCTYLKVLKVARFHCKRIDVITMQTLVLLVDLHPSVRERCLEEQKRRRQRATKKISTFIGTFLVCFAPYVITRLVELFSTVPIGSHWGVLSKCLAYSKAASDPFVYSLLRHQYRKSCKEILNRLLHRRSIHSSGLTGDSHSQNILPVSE

[22] = target: T17, 318 nonolfactory human GPCRs (Homo sapiens, UniProt Q96P67); details: GPR82; C21 5 µM
T17 construct: expressed in transfected cells; host or cells: HTLA cells, transient

[23] = target: T18, 318 nonolfactory human GPCRs (Homo sapiens, UniProt Q96P68); details: OXGR1; C21 5 µM
T18 construct: expressed in transfected cells; host or cells: HTLA cells, transient

[24] = target: T19, 318 nonolfactory human GPCRs (Homo sapiens, UniProt Q99677); details: LPA4; C21 5 µM
T19 construct: expressed in transfected cells; host or cells: HTLA cells, transient

[25] = target: T20, 318 nonolfactory human GPCRs (Homo sapiens, UniProt Q99679); details: GPR21; C21 5 µM
T20 construct: expressed in transfected cells; host or cells: HTLA cells, transient
T20 sequence (Q99679 whole entry): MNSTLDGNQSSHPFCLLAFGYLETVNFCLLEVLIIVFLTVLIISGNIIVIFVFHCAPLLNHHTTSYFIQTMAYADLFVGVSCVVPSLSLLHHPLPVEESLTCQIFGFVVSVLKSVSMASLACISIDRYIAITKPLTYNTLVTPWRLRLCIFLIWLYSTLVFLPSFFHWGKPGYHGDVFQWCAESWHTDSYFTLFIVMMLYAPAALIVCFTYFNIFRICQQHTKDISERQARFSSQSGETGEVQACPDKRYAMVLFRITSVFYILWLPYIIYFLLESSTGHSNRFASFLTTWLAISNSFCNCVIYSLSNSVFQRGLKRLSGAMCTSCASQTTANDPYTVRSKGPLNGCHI

[26] = target: T21, 318 nonolfactory human GPCRs (Homo sapiens, UniProt Q99705); details: MCHR1R; C21 5 µM
T21 construct: expressed in transfected cells; host or cells: HTLA cells, transient

[27] = target: T22, 318 nonolfactory human GPCRs (Homo sapiens, UniProt Q9BXC1); details: GPR174; C21 5 µM
T22 construct: expressed in transfected cells; host or cells: HTLA cells, transient
T22 sequence (Q9BXC1 whole entry): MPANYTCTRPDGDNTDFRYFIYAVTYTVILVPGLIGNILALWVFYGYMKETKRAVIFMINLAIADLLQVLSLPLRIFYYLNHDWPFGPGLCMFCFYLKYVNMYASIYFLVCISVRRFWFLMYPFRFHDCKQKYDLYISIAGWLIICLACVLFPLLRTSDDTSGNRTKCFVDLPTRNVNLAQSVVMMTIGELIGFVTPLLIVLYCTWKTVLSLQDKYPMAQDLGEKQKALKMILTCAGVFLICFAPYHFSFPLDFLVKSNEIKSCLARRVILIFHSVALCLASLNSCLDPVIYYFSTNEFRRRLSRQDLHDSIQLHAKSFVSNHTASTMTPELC

[28] = target: T23, 318 nonolfactory human GPCRs (Homo sapiens, UniProt Q9H1C0); details: LPAR5; C21 5 µM
T23 construct: expressed in transfected cells; host or cells: HTLA cells, transient

[29] = target: T24, 318 nonolfactory human GPCRs (Homo sapiens, UniProt Q9H244); details: P2RY12; C21 5 µM
T24 construct: expressed in transfected cells; host or cells: HTLA cells, transient
T24 sequence (Q9H244 whole entry): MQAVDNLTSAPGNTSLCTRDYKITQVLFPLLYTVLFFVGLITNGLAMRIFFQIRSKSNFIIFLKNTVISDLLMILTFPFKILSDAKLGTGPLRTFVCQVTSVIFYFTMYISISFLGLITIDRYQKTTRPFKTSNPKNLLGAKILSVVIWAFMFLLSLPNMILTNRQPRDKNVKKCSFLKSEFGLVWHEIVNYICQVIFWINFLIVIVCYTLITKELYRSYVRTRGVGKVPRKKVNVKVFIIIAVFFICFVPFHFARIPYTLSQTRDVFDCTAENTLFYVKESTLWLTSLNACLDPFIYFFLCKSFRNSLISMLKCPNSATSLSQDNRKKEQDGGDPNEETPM

[30] = target: T25, 318 nonolfactory human GPCRs (Homo sapiens, UniProt Q9NPC1); details: LTB4R2B; C21 5 µM
T25 construct: expressed in transfected cells; host or cells: HTLA cells, transient
T25 sequence (Q9NPC1 whole entry): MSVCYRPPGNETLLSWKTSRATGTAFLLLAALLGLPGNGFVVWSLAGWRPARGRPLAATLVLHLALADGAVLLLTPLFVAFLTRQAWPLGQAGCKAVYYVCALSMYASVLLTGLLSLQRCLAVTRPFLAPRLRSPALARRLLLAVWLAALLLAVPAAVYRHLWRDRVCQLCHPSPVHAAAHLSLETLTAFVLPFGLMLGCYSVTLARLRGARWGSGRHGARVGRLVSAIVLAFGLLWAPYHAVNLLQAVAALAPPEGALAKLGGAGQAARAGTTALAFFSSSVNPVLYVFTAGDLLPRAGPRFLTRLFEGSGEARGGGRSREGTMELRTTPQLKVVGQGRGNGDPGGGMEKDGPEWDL

[31] = target: T26, 318 nonolfactory human GPCRs (Homo sapiens, UniProt Q9NS75); details: CYSLTR2; C21 5 µM
T26 construct: expressed in transfected cells; host or cells: HTLA cells, transient

[32] = target: 318 nonolfactory human GPCRs (Homo sapiens, UniProt Q9UPC5); details: GPR34; C21 5 µM
[33] = target: T27, 318 nonolfactory human GPCRs (Homo sapiens, UniProt Q9Y5N1); details: HRH3; C21 5 µM
T27 construct: expressed in transfected cells; host or cells: HTLA cells, transient
T27 sequence (Q9Y5N1 whole entry): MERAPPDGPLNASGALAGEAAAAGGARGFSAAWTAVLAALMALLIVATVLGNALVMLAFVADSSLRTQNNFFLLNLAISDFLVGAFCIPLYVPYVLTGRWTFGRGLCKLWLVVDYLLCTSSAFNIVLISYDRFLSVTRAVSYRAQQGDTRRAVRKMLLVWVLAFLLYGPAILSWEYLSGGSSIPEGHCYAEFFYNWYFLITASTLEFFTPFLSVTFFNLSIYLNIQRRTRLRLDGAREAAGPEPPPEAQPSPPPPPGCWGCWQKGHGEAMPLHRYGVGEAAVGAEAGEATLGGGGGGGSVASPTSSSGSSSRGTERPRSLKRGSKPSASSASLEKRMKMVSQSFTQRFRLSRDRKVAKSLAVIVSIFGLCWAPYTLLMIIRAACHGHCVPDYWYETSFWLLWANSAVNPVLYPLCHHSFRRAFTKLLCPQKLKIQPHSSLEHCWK

[34] = target: T28, 318 nonolfactory human GPCRs (Homo sapiens, UniProt Q9Y5Y4); details: GPR44; C21 5 µM
T28 construct: expressed in transfected cells; host or cells: HTLA cells, transient
T28 sequence (Q9Y5Y4 whole entry): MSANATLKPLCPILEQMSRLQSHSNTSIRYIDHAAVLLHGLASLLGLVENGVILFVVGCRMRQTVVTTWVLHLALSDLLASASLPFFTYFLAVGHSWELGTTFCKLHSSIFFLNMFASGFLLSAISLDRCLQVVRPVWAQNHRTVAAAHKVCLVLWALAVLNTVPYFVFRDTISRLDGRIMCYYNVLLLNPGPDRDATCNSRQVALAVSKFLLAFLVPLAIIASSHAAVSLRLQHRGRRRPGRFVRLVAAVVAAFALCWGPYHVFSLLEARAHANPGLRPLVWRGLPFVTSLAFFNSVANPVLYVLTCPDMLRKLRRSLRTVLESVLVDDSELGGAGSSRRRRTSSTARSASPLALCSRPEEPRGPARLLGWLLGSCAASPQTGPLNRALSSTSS

c1ccc2c(c1)N=C(N1CCNCC1)c1ccccc1N2 [C21, 11-(1-piperazinyl)-5H-dibenzo[b,e][1,4]diazepine]
FOLD OVER BASAL [1]: 0.9 fold and 1.1 fold
FOLD OVER BASAL [2]: 0.7 fold and 0.9 fold and 0.6 fold
FOLD OVER BASAL [3]: 0.6 fold and 0.5 fold and 0.8 fold
FOLD OVER BASAL [4]: 0.7 fold and 0.8 fold and 0.5 fold and 0.9 fold
FOLD OVER BASAL [5]: 1.2 fold and 0.8 fold
FOLD OVER BASAL [6]: 0.8 fold and 1.4 fold and 0.9 fold
FOLD OVER BASAL [7]: 0.7 fold and 0.8 fold and 1.1 fold and 1.3 fold
FOLD OVER BASAL [8]: 1 fold and 1.1 fold and 1.3 fold
FOLD OVER BASAL [9]: 0.7 fold and 0.8 fold and 0.9 fold
FOLD OVER BASAL [10]: 1 fold and 0.6 fold and 0.8 fold
FOLD OVER BASAL [11]: 1.7 fold and 1.4 fold and 1.2 fold and 1.1 fold
FOLD OVER BASAL [12]: 1.8 fold and 0.9 fold and 1.1 fold and 1.2 fold
FOLD OVER BASAL [13]: 1 fold and 0.8 fold and 1.1 fold and 0.7 fold
FOLD OVER BASAL [14]: 0.6 fold and 1 fold
FOLD OVER BASAL [15]: 1.4 fold and 1.2 fold and 1.3 fold and 1 fold
FOLD OVER BASAL [16]: 0.5 fold and 0.8 fold and 0.6 fold
FOLD OVER BASAL [17]: 0.3 fold and 0.4 fold
FOLD OVER BASAL [18]: 1.1 fold and 0.9 fold and 1 fold
FOLD OVER BASAL [19]: 0.7 fold and 0.8 fold
FOLD OVER BASAL [20]: 0.6 fold and 0.5 fold and 0.7 fold
FOLD OVER BASAL [21]: 1.5 fold and 0.8 fold and 1 fold and 0.9 fold
FOLD OVER BASAL [22]: 1 fold and 0.9 fold and 1.1 fold
FOLD OVER BASAL [23]: 0.7 fold and 0.6 fold and 1.2 fold
FOLD OVER BASAL [24]: 1.2 fold and 1.1 fold and 0.8 fold
FOLD OVER BASAL [25]: 0.9 fold and 0.8 fold and 1.2 fold and 0.7 fold
FOLD OVER BASAL [26]: 1 fold and 0.8 fold and 1.1 fold and 1.4 fold
FOLD OVER BASAL [27]: 0.6 fold and 0.9 fold and 0.5 fold
FOLD OVER BASAL [28]: 0.8 fold and 1.2 fold and 0.6 fold and 0.7 fold
FOLD OVER BASAL [29]: 0.6 fold and 1 fold and 0.5 fold and 0.8 fold
FOLD OVER BASAL [30]: 1 fold and 0.9 fold and 1.1 fold and 1.2 fold
FOLD OVER BASAL [31]: 0.7 fold and 0.9 fold and 1.1 fold
FOLD OVER BASAL [32]: 1.2 fold and 1.1 fold and 1.4 fold
FOLD OVER BASAL [33]: 1.3 fold and 0.9 fold and 0.8 fold
FOLD OVER BASAL [34]: 1.3 fold and 2.1 fold and 1.5 fold and 1.4 fold
